The text below walks through data of patent US8993117B2, “Devices with multiple surface functionality” (The Trustees of Princeton University, priority 2005, dated 2015).

Data set [1] can be described thus: Quartz crystal microbalance (QCM) surface coverage / loading of phosphonate coatings on Ti. It is filed as physicochemical.
Experimental: The QCM technique allows accurate, gravimetric determination of mass changes on an electrode which is deposited on a piezoelectric quartz crystal. It is, thus, ideal to monitor surface reactions of target metals when they are used as such electrodes: the QCM oscillates at a resonant frequency which is determined by the cut and mass of the crystal, and, just as for a classical oscillator, changes in electrode mass result in changes in crystal resonant frequency. […] Up to three different reference crystals (prepared in different batches) were used as received to calibrate the QCM. […] To ensure that monolayer coverage (at most) occurred on Ti surface, phosphonic acid-based films were subjected to copious rinsing followed by evacuation (≦10^−2 Torr) until a constant crystal frequency was established (within experimental noise levels of ±2 Hz).
Piezoelectric quarts crystals (International Crystal Manufacturers [ICM]; AT-cut, 1000 Å Ti electrodes, 10 MHz, overtone polished, 0.201 in. electrode diameter) were used for film deposition and as references. […] In each experimental run, the fundamental frequency (fo) of an unreacted crystal was measured. […] A new frequency (fc) was then measured. The crystal was then subjected to rinsing followed by evacuation (≦10^−2 Torr) until a constant frequency was measured (±2 Hz), assumed to be a monolayer coverage of the Ti electrodes. […]
The nature of data set [2]: Solvent rinsing and tape peel testing of coatings (IR/DRIFT). The data set is classed as physicochemical. Particulars: aerosol in THF, room temperature, no heating. Here is the method: Coupons which had been treated were rinsed several times with deposition solvent and, where appropriate, ethanol and/or water, to remove soluble residues. A piece of tape (e.g., 3M red Scotch™ “650” tape or Scotch Masking Tape #234; 37 oz./in. adhesion to steel) was adhered to the derivatized surface of the solvent washed foil sample and quickly removed. The freshly “peeled” coupon was then analyzed again by DRIFT spectroscopy.
Samples of coupons of aluminum, iron, and titanium, prepared as described above, were treated with an aerosol of n-octadecanephosphonic acid in tetrahydrofuron (THF) at room temperature in the ambient environment. Following the spray application of the acid solution the solvent was allowed to evaporate at ambient temperature and the derivatized surfaces of the coupons were analyzed by FTIR. The surfaces where then washed with THF and analyzed both before and after a peel test using red Scotch™ “650” tape.

The conditions of data set [3]: one week, cited from earlier work.
The conditions of data set [4]: pH 7; cited from earlier work.
Data set [5] in a line: Hydrolytic stability of DANSYL-RGDC labelled diphosphonate SAM by fluorimetry. Particulars: after about 96 hours at pH 7.5, cleaved at about pH 12. The data set is classed as physicochemical. As to the method: To further test the stability of diphosphonate SAMs towards aqueous conditions, fluorimetry was employed. Coupons of Ti-mPEG were then exposed to vapor of […] to yield the surface-bound complex. The complex modified coupons were then treated with a solution of 6-maleimidohexanoic acid in THF and were then rinsed thoroughly, and analyzed via IR (vCO≈1705 cm^−1). The coupons were then placed in a solution of N-(5-dimethylamino-1-naphthyl-sulfonyl)-RGDC (DANSYL-RGDC), then rinsed thoroughly, and probed via IR (vpeptide-CO≈1650-1690 cm^−1). The DANSYL group provides a fluorescent “tag” with which to monitor hydrolysis of the surface.
Fluorophore-labeled coupons were immersed in water at about pH 7.5. Fluorescence intensity of the supernatant was measured over about 90 hours; a calibration curve of DANSYL-RGDC was also prepared to relate concentrations in solution with fluorescence intensity, according to Beer's Law. […] Fluorescence intensity in the supernatant was measured against a second calibration curve of DANSYL-RGDC at about pH 12, and the solution concentration was determined by Beer's Law. […] At this point, the DANSYL-RGDC remaining on the surface was measured by exposing the coupon to strong alkaline (about pH 12) for about 3 hours to cleave any remaining zirconium complex species from the SAM. […]

For the next data set, the target named is αvβ3 integrins (Homo sapiens, UniProt P05106+P06756). Particulars: cited from earlier work.
Chain of αvβ3 integrins (P06756 31-1048): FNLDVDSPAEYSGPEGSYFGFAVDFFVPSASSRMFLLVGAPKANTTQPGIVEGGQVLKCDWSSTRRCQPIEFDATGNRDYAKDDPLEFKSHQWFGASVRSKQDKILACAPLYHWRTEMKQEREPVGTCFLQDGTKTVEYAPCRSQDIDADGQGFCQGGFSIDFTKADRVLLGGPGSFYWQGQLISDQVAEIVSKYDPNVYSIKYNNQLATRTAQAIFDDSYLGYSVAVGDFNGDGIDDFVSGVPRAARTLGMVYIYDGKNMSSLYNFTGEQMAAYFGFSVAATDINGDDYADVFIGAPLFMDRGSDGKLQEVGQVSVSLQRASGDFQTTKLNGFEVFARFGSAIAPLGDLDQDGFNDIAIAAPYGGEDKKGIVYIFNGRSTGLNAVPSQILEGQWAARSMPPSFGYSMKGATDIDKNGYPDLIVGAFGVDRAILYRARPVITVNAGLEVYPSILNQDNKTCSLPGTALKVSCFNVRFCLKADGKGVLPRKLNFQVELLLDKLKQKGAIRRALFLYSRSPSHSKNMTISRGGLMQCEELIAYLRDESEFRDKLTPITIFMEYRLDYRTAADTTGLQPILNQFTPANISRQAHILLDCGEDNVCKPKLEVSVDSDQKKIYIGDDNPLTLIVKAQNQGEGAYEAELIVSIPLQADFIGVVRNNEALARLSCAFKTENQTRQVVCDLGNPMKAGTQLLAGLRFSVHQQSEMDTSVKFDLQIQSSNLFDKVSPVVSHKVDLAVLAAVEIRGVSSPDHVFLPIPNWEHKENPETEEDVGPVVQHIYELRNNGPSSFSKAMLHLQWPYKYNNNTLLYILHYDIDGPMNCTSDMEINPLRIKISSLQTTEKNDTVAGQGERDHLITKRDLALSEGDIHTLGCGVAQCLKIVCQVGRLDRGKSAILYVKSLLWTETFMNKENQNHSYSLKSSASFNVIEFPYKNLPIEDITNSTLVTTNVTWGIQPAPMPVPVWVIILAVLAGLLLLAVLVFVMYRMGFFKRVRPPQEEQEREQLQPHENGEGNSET
Chain of αvβ3 integrins (P05106 27-788): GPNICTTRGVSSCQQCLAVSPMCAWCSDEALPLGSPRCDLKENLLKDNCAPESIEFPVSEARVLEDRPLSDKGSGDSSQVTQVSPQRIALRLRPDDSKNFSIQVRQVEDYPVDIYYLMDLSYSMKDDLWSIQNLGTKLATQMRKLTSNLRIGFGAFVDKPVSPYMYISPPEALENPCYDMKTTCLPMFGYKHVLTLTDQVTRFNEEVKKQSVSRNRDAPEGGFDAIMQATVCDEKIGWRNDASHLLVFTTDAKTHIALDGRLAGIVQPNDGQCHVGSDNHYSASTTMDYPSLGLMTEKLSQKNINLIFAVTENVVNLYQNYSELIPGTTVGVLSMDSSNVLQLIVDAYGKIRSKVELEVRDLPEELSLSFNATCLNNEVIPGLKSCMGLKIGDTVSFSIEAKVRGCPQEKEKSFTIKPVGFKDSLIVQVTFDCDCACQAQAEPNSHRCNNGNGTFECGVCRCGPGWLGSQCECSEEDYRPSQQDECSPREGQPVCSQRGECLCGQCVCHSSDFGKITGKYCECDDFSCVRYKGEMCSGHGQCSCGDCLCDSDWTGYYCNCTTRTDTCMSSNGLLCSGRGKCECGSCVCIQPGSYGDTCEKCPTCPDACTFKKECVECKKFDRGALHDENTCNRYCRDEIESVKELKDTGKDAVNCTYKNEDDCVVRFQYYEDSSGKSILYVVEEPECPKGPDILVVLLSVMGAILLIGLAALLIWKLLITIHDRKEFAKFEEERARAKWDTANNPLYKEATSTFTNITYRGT

As to “Arg-Gly-Asp-Cys (RGDC; printed: Arg-Gly-Asp-Cys) [cysteine modified fibronectin cell attachment peptide]”, in data set [1], the “RGDC loadings on SAMs of 11-hydroxyphosphonate on Ti” value was roughly 0.52 nmol/cm^2.

For `CCCCCCCCCCCCCCCCCCP(=O)(O)O` [octadecylphosphonic acid], in data set [2], the “Persistence of phosphonic acid layer after washing and peel test, aluminum native oxide” value was “survives washing, but not peel testing”; the “Persistence of phosphonic acid layer after washing and peel test, iron native oxide” value is “survives both washing and peel testing”; the “Persistence of phosphonic acid layer after washing, titanium native oxide” value is recorded as “readily removed by washing with the deposition solvent”. In addition, in data set [3] (neutral pH), the “Bound material lost from the surface of TiO2” value is recorded as 16% and the “Bound material lost from the surface of ZrO2” value was 5%.

As for “(cyclo)-1,6 acetyl-CRGDF-penicillamine-NH2”, the “Stability relative to linear RGDF” value in data set [4] is reported as 30 times.

“N-(5-dimethylamino-1-naphthyl-sulfonyl)-RGDC [DANSYL-RGDC]”: the “Surface loading of DANSYL-RGDC stable at about pH 7.5” value in data set [5] is listed as “about 0.58 nmol/cm^2”.

For cyclic (RGDFV-), the “Specificity towards αvβ3 integrins relative to linear GRGDSPK” value on αvβ3 integrins is listed as “over 100 times”.

As to `CCCCCCCCCCCCCCCCCC[Si](C)(C)Cl` [octadecyldimethylchlorosilane], in data set [3], the “Surface hydrolysis of coated powders (in words)” value is given as “almost total surface hydrolysis”.
